Results as given in US20230157286A1, “METHODS FOR INCREASING SECONDARY METABOLITE PRODUCTION IN CANNABIS” (priority 2021, published 2023).

Columns and labels:
[1] = test system: cannabis clones of the gelato varietal; details: in vivo
[2] = test system: cannabis clones of the gelato varietal; test: Aroma compound analysis of cannabis flower by GCxGC-FID/TOF-MS; format: in vivo; details: compared with control and G1
Experimental: The major volatile aroma compounds of the flowers from the Cannabis plants were extracted using methanol as a solvent. 200 mg of flower was placed into a scintillation vial followed by mechanical grinding with a plastic disposable spatula. 2 mL of methanol was added to the flower and agitated for 15 minutes, followed by transferring 4 μL of the solution using a filtered syringe to a 20 mL headspace vial and crimped using an electric crimper.
GC×GC analysis was performed using the INSIGHT™ reverse fill flush flow modulator (SepSolve Analytical). This was coupled for data generation to an Agilent 7890B GC and BenchTOF Select Time of flight mass spectrometer (Markes International). Time-of-Flight Mass spectrometry (TOF-MS) was used to identify compounds. Quantification of compounds was done using a flame ionization detector (HD). Sample introduction was done using a Centri Sample Concentration Platform (Markes International). […]
Data was collected, integrated, and analyzed using the ChromSpace software platform (Sepsolve Analytical). Compounds were quantified from GC×GC—FID data with calibration curves using a 40-compound terpene standard (LGC Standards). […]
Three different samples of the plants shown in FIG. 4 were measured to obtain an average.
Three different samples of the plants shown were measured to for each group.

SMILES | THC and total cannabinoid concentration / cannabinoid production, in words [1] | volatile aroma compound production / aroma content, in words [2]
COc1ccc2[nH]cc(CCNC(C)=O)c2c1 [melatonin] | increased cannabinoid production relative to the control group | 
O=S(=O)([O-])[O-].[K+].[K+] [K2SO4, potassium sulfate] | negatively affects | negatively affects
